Measurements published in US9029567B2, “Hypoglycemic compounds” (Cadila Pharmaceuticals Limited, priority 2010, dated 2015).

Tested on: Wistar female rats
Assay: Oral Glucose Tolerance Test in animals (in vivo screening of hypoglycemic effect)
Conditions: three experiments; for % change in glucose level (Mean ± SEM) 30 Min: 30 min after glucose (2 gm/Kg, given 3 hrs after compound), oral equimolar dose (Sitagliptin 9.0, CPL-2009-0030 11.28, CPL-2009-0031 12.0 mg/kg), no treatment 199 ± 5; for % change in glucose level (Mean ± SEM) 1 Hr: 1 hr after glucose (2 gm/Kg, given 3 hrs after compound), no treatment 154 ± 4; for % change in glucose level (Mean ± SEM) 1 Hr / % change in glucose level (Mean ± SEM) 2 hr: oral equimolar dose; for % change in glucose level (Mean ± SEM) 2 hr: 2 hr after glucose (2 gm/Kg, given 3 hrs after compound), no treatment 122 ± 5
Method: The efficacy compound CPL-2009-0030 and CPL-2009-0031 were prepared as per present invention. They were evaluated through Oral Glucose Tolerance Test in animals. Each group consist of 10-12 weeks old Wistar female rats. The animals were divided into 4 different groups of 6 animals per group. The group I received vehical (WFI Placebo), Group II received Sitagliptin as positive control, Group III received CPL-2009-0030 and Group IV received CPL-2009-0031. All animals had over night fasting.
The drug was administrated as per table 01 at 0 hour to all the study group animals with 10 mL/kg of dose volume. The compounds were administered orally. The glucose (2 gm/Kg body weight) was administered 3 hrs after the administration of compounds. Blood glucose was measured at the time of administration of compound, glucose and 30 min, 1 hr, 2 hr, 3 hr and 4 hr after the glucose administration. […] The rise was maximum at 30 min after glucose administration. […] The difference between no treatment group and other three groups is maximum at 30 min and it decreases over time (FIG. 1). […] Thus, the compound of present invention reduces hyperglycaemic effect of glucose without inducing hypoglycaemia. In other words, compounds of present invention provide hypoglycaemic effect only to reduce post-prandial hyperglycaemia without inducing fasting hypoglycaemia.
To confirm the finding the experiment was repeated three times and the percentage change in glucose level over time of three experiments is presented in table 02. The repeat experiments also confirm the findings.

Row | SMILES | % change in glucose level (Mean ± SEM) 30 Min | % change in glucose level (Mean ± SEM) 1 Hr | % change in glucose level (Mean ± SEM) 2 hr
1 | N[C@@H](CC(=O)N1CCn2c(nnc2C(F)(F)F)C1)Cc1cc(F)c(F)cc1F [Sitagliptin, reference compound] | 149 ± 5% | 130 ± 4% | 109 ± 2%
2 | NC(Cc1ccccc1)C(=O)NC(CC(=O)N1CCn2c(nnc2C(F)(F)F)C1)Cc1cc(F)c(F)cc1F (stereo not drawn) [CPL-2009-0031] | 125 ± 3% | 123 ± 4% | 110 ± 3%
3 | CCC(C)C(N)C(=O)NC(CC(=O)N1CCn2c(nnc2C(F)(F)F)C1)Cc1cc(F)c(F)cc1F (stereo not drawn) [CPL-2009-0030] | 145 ± 13% | 127 ± 6% | 108 ± 5%
